From ChEMBL document CHEMBL1201862, “PubChem BioAssay data set” (2004)
Activity calls are given as the source filed them.

Key:
[1] = target: Serine/threonine-protein phosphatase PP1-alpha catalytic subunit (Homo sapiens, UniProt P62136); test: PP1 phosphatase inhibitors, dose response, biochemical, fluorescence (AID 2403);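 also: phosphatase turnover of OMFP into fluorescent 3-O-methylfluorescein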
[2] = target: T1, Serine/threonine-protein phosphatase (Homo sapiens, UniProt Q9BPW0); test: Counterscreen for inhibitors of PP1: fluorescence-based biochemical high throughput dose response assay to identify inhibitors of Protein Phosphatase 5 (PP5). [Related pubchem assays: 2034 (Summary (PP5 inhibitors)), 1987 (PP5 inhibitors in singlate), 2235 (PP1 inhibitors in singlate)]
T1 sequence (Q9BPW0 whole entry): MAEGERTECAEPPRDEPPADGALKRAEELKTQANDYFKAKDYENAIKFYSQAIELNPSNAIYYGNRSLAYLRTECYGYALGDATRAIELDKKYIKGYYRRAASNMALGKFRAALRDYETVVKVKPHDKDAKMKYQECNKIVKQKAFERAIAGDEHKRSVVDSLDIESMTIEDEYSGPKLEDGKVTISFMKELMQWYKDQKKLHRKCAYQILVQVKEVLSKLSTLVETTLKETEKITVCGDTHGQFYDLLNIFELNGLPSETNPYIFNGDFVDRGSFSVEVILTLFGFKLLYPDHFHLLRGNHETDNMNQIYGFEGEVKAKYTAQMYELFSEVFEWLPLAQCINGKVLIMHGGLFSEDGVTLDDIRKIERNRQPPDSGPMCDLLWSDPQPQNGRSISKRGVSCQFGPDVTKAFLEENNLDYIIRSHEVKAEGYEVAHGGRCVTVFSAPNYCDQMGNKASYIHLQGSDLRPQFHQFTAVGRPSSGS

Nonstructural protein 1 = Nonstructural protein 1 (Influenza A virus, UniProt Q194T2); format: functional, Influenza A virus (A/California/07/2009(H1N1))
[3] = Vero E6 cell cytotoxicity, dose response, cytotoxicity control for non-replicating M. tuberculosis project, secondary assay (AID 492998); format: functional, VeroE6; conditions: Vero C1008
[4] = cytotoxicity in HEK-293T cells, dose response, cytotoxicity control for TCR NF-kB inhibitor project, luminescence, T-cell screen hits (AID 489026); format: functional, cell-based;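 also: cells exposed to compound about 14 hours before the viability readout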
cells = format: functional
[5] = THP-1 cell cytotoxicity, dose response, cytotoxicity control for non-replicating M. tuberculosis project (AID 489025); format: functional
[6] = target: G2/mitotic-specific cyclin-B1 (Homo sapiens, UniProt P14635); test: Counterscreen assay for inhibitors of Wee1 degradation: dose response cell-based assay to identify inhibitors of cyclin B degradation. [Related pubchem assays: 1410, 1321 ]; format: functional
Wee1-like protein kinase = Wee1-like protein kinase (Homo sapiens, UniProt P30291); test: Dose Response Cell-based Assay for Inhibitors of Wee1 Degradation. [Related pubchem assays: 1410, 1321 ]; format: functional
[7] = HEp-2 cell cytotoxicity, dose response, cytotoxicity control for RSV inhibitor project, HTS (AID 2410); format: functional; conditions: human respiratory syncytial virus
Oxytocin receptor = Oxytocin receptor (Homo sapiens, UniProt P30559); test: Fluorescence-based cell-based high throughput dose response assay for agonists of the Oxytocin Receptor (OXTR). [Related pubchem assays: 2435 (Primary screen (OXTR agonists in singlicate)), 434991 (Counterscreen (V1R agonists in triplicate)), 2482 (Summary (OXTR agonists)), 434963 (Confirmation screen (OXTR agonists in triplicate))]; format: functional
[8] = Vero cell cytotoxicity, dose response, cytotoxicity control for Vif-APOBEC3G degradation inhibitor project, Vero cells (AID 1117358); format: functional; conditions: Human immunodeficiency virus 1, Vero
[9] = target: T2, Corticotropin-releasing factor receptor 2/Corticotropin-releasing factor-binding protein (Homo sapiens, UniProt P24387+Q13324); test: activators of CRF receptor 2 with binding protein – uHTS hits, confirmation (AID 602473); format: functional; conditions: read-out: EC50_Mean
T2 sequence (Q13324 whole entry): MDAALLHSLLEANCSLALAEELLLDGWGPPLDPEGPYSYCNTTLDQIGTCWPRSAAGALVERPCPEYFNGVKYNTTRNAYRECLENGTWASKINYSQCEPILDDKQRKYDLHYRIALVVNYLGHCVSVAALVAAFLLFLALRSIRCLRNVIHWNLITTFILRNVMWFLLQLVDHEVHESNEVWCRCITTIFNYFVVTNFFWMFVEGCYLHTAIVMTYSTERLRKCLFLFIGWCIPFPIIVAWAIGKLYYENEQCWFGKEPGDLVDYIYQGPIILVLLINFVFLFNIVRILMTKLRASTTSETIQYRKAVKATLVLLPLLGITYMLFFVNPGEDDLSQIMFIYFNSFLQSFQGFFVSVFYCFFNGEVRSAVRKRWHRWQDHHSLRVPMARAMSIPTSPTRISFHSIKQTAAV
T2 sequence (P24387 whole entry): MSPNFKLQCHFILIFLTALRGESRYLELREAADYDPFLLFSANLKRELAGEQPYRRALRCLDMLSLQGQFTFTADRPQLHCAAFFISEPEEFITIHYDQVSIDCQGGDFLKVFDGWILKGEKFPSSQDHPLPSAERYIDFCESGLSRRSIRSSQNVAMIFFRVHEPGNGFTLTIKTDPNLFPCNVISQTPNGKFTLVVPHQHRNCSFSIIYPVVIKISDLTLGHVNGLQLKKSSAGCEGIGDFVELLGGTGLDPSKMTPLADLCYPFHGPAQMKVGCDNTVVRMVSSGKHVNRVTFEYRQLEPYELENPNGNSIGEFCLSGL

Vasopressin V1a receptor = Vasopressin V1a receptor (Homo sapiens, UniProt P37288); test: Counterscreen for Oxytocin Receptor (OXTR) agonists: Fluorescence-based cell-based high throughput dose response assay to identify agonists of the vasopressin 1 receptor (V1R). [Related pubchem assays: 2435 (Primary screen (OXTR agonists in singlicate)), 434991 (Counterscreen (V1R agonists in triplicate)), 2482 (Summary (OXTR agonists)) …; format: functional
[10] = M. tuberculosis growth inhibition, HTS (AID 449762); format: functional
[11] = target: T3, Heat shock factor protein 1 (Mus musculus, UniProt P38532); test: HSF1 potentiators in luciferase reporter cells, confirmation, cell-based, NIH3T3, luminescence, dose retest (AID 435004); format: functional;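 also: stress induced by proteasome inhibitor MG132 added 30 min after compound; luciferase reporter driven by HSF1 response element in NIH3T3 cells; actives raise luminescence as potentiators of the MG132 stress response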
T3 sequence (P38532 whole entry): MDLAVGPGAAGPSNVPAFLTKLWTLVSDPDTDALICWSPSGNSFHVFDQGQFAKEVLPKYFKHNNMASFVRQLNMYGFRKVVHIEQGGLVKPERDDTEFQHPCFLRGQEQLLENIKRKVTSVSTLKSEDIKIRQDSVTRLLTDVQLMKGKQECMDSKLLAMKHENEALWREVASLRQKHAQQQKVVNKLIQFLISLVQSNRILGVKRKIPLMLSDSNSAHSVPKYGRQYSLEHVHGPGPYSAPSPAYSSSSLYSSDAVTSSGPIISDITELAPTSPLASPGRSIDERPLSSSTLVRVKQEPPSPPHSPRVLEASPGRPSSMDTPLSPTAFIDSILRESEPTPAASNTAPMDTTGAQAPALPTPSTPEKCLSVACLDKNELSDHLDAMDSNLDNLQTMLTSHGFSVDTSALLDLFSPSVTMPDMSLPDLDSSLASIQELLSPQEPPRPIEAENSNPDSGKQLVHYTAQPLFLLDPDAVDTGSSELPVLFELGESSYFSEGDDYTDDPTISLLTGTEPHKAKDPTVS

NS3 = NS3 (Hepatitis C virus, UniProt A3EZJ3); test: PubChem AID 2173; set-up: species or system Hepacivirus hominis
[12] = CRF-BP/CRF-R2 complex antagonists, dose response, cell-based, uHTS hits, 384-well (AID 651639); format: functional, Homo sapiens; conditions: read-out: IC50_Mean
Phospholipase A2 = Phospholipase A2 (Homo sapiens, UniProt P04054); format: functional;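 also: confirmatory dose-response counterscreen on phospholipase A2, testing hits that came from an ultra-high-throughput screen for ATG4B inhibitors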
[13] = target: T2, Corticotropin-releasing factor receptor 2/Corticotropin-releasing factor-binding protein; test: Dose Response confirmation of uHTS hits for small molecule antagonists of the CRF-binding protein and CRF-R2 receptor complex.; format: functional; conditions: read-out: IC50_Mean
Cysteine protease ATG4B = target: T4, Cysteine protease ATG4B (Homo sapiens, UniProt Q9Y4P1); format: functional;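 also: Fluorescence-based dose-response confirmation assay measuring inhibition of ATG4B activity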
T4 sequence (Q9Y4P1 whole entry): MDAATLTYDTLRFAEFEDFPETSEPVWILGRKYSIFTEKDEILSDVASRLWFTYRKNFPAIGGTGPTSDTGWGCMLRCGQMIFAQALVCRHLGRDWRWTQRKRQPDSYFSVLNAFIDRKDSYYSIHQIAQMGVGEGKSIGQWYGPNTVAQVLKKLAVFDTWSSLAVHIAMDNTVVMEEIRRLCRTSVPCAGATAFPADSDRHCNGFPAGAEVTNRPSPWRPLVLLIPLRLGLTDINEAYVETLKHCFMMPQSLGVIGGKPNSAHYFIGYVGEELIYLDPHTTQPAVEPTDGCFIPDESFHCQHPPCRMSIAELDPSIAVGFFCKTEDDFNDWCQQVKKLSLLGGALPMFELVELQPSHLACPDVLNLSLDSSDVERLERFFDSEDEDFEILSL

Aminopeptidase N = target: T5, Aminopeptidase N (Plasmodium falciparum FcB1/Columbia, UniProt O96935); test: P. falciparum M1AAP inhibitors, biochemical, fluorogenic H-Leu-NHMec substrate, 1536-well (AID 1445); set-up: species or system Plasmodium falciparum 3D7, 3D7
T5 sequence (O96935 whole entry): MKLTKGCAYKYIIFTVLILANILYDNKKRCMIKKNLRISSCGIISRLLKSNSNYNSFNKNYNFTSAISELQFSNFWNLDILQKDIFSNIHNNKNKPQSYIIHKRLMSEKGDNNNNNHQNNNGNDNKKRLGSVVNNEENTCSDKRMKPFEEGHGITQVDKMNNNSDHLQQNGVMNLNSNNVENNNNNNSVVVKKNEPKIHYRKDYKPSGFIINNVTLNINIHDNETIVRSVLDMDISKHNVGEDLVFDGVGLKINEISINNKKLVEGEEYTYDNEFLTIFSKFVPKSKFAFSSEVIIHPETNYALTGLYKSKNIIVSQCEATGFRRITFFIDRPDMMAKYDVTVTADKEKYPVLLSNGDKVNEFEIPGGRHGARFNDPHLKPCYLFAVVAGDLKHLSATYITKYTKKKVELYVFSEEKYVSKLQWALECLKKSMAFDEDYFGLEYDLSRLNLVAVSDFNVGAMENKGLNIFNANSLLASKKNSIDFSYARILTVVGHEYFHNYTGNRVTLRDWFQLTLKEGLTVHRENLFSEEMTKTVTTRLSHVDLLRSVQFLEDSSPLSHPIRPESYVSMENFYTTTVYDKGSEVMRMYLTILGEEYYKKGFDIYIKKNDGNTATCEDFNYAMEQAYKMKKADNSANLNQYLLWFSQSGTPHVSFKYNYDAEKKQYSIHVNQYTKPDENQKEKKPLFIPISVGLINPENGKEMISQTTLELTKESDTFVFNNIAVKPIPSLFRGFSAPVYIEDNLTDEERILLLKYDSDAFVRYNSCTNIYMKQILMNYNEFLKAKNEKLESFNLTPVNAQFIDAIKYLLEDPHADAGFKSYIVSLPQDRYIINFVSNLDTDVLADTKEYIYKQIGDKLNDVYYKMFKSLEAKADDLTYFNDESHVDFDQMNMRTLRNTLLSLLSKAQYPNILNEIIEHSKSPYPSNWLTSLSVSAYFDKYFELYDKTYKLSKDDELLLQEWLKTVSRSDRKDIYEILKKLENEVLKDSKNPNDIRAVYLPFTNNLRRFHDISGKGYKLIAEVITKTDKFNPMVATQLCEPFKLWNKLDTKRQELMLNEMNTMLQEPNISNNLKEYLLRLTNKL

[14] = HIV-1 Env-mediated cell fusion inhibitors, dose response, CCR5-tropic Env (AID 2279); format: functional

Sequence of Nonstructural protein 1 (Q194T2 whole entry): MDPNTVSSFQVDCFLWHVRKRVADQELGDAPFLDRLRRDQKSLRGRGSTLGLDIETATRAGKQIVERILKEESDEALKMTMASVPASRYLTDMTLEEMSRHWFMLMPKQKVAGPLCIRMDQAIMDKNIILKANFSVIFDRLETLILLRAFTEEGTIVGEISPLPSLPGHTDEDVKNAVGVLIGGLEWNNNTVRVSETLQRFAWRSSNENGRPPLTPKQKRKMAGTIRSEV
Sequence of Wee1-like protein kinase (P30291 whole entry): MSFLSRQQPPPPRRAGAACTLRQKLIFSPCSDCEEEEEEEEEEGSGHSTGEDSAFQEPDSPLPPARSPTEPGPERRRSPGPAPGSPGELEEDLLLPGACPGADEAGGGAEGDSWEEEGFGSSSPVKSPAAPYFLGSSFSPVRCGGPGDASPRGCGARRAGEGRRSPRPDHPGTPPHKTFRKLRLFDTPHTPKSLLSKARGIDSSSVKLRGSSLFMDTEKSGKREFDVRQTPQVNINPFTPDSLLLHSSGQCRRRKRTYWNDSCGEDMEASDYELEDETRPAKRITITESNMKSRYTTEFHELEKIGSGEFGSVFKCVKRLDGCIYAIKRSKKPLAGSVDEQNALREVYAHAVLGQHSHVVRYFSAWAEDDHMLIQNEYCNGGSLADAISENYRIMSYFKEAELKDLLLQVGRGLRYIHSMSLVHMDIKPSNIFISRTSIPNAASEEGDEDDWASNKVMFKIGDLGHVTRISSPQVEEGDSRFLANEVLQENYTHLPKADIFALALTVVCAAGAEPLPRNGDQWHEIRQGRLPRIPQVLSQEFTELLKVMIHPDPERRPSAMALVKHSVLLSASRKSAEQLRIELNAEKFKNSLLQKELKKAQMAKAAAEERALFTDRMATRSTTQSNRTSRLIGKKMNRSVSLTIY
Sequence of NS3 (A3EZJ3 whole entry): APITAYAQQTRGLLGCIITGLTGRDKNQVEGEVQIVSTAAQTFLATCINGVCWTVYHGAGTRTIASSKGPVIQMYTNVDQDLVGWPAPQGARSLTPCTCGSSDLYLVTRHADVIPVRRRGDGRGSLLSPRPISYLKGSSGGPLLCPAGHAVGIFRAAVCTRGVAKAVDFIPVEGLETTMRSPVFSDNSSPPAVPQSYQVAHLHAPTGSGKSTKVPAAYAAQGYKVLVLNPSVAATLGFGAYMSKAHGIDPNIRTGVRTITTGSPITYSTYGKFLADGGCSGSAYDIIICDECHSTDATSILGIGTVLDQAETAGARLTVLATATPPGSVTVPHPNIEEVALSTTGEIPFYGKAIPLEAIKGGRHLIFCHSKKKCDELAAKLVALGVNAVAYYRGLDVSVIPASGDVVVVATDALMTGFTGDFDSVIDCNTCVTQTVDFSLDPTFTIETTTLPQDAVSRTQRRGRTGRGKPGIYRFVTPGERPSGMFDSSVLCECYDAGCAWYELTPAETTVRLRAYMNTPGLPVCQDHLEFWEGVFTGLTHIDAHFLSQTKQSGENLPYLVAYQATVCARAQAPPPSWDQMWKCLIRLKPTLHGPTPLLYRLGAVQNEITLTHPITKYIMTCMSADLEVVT
Sequence of G2/mitotic-specific cyclin-B1 (P14635 whole entry): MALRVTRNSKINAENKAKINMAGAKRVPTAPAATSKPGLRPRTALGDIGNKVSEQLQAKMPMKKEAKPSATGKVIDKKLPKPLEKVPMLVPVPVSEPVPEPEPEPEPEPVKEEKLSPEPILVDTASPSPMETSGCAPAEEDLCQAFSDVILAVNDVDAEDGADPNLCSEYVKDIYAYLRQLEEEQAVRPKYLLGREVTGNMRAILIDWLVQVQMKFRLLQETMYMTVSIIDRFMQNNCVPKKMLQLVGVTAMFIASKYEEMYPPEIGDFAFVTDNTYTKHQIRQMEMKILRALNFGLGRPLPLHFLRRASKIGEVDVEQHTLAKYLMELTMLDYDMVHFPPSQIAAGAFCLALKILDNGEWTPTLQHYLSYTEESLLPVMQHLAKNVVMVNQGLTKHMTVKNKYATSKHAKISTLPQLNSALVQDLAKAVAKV
Sequence of Serine/threonine-protein phosphatase PP1-alpha catalytic subunit (P62136 whole entry): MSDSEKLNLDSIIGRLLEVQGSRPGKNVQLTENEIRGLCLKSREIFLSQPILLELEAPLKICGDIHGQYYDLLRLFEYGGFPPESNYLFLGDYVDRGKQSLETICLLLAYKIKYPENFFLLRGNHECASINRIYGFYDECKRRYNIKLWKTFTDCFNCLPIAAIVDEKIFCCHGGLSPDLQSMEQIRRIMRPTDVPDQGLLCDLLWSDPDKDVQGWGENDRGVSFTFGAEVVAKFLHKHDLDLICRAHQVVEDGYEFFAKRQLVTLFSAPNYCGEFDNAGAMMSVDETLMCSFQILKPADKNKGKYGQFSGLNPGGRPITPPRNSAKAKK
Sequence of Oxytocin receptor (P30559 whole entry): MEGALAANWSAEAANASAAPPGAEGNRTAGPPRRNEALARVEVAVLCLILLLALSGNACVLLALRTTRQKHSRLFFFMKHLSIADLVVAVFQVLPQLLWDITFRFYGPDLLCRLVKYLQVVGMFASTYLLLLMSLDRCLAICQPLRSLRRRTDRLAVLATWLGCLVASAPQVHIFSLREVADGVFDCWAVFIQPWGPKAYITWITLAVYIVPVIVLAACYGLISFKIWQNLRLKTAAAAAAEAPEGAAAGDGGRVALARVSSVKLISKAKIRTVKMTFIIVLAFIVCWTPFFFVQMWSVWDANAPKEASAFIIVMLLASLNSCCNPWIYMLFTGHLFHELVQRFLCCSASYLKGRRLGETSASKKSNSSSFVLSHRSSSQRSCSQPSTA
Sequence of Phospholipase A2 (P04054 whole entry): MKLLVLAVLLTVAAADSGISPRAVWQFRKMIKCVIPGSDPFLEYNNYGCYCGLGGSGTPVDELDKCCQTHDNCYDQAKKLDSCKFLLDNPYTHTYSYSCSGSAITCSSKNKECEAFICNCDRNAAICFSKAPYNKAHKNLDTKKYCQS
Sequence of Vasopressin V1a receptor (P37288 whole entry): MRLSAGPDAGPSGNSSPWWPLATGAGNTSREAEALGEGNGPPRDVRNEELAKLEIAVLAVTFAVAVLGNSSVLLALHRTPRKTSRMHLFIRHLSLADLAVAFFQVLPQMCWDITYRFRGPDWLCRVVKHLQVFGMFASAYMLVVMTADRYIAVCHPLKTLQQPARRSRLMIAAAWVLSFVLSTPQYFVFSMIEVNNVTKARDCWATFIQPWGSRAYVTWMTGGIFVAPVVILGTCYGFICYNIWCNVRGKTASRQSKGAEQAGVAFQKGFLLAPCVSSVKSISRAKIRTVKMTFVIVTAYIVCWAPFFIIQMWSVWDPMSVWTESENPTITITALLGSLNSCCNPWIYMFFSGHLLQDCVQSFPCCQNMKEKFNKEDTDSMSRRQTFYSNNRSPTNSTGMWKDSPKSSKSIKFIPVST

With O=C(Nc1nc(-c2ccccn2)cs1)C1CC(=O)N(c2ccc3c(c2)OCCO3)C1 (centres undefined) as the compound, how does the IC50 [1] read?
Its IC50 is 5.98 µM (active).

And the IC50 [2]?
Its IC50 is > 67 µM (not active).

What about the IC50 (Nonstructural protein 1) of the same compound?
Its IC50 is 13.5 µM (active).

Which CC50 [3] does the source give for O=C(N=Nc1c(O)[nH]c2ccc(Br)cc12)c1ccccc1-n1cccc1 here?
The CC50 was 4.28 µM (active).

And the IC50 [4]?
Its IC50 is > 80 µM (inactive).

What about the IC50 (cells) of the same compound?
The IC50 was > 50 µM (active).

And the CC50 [5]?
Its CC50 is 1.15 µM (active).

What about the EC50 [6] of the same compound?
Its EC50 is > 49.7 µM (not active).

What about the EC50 (Wee1-like protein kinase) of the same compound?
The EC50 was > 49.7 µM (not active).

Which CC50 [7] does the source give for Cc1[nH]c2ccccc2c1C(=O)CN1C(=O)NC(C)(c2ccc(Cl)cc2Cl)C1=O (centres undefined) here?
Its CC50 is 13.9 µM (active).

And the EC50 (Oxytocin receptor)?
The EC50 was > 29.9 µM (not active).

And the CC50 [8]?
The CC50 was 38.2 µM (active).

And the EC50 [9]?
Its EC50 is 7.59 µM (active).

And the EC50 (Vasopressin V1a receptor)?
Its EC50 is > 29.9 µM (not active).

For COc1ccccc1/C=C/C1=NC(=C\C=C/c2ccccc2)/C(=O)O1, which IC50 [10] is on record?
Its IC50 is > 100 µM (active).

And the EC50 [11]?
The EC50 was > 260 µM (inactive).

What about the IC50 (NS3) of the same compound?
Its IC50 is 24.1 µM (not active).

With Cc1ccc(N2C(=O)/C(=C\Nc3ccccc3-c3nnc(S)nc3O)c3ccccc3C2=O)c(C)c1 as the compound, how does the IC50 [12] read?
Its IC50 is > 20 µM (inactive).

What about the IC50 (Phospholipase A2) of the same compound?
The IC50 was 10 µM (active).

What about the EC50 [9] of the same compound?
Its EC50 is > 53 µM (inactive).

What about the IC50 [13] of the same compound?
The IC50 was 3.83 µM (active).

What about the IC50 (Cysteine protease ATG4B) of the same compound?
Its IC50 is 14 µM (active).

What about the IC50 (Aminopeptidase N) of the same compound?
The IC50 was 27.4 µM (active).

And the IC50 [14]?
Its IC50 is 39.9 µM (active).
